According to US20230410977A1, “METHODS AND MATERIALS FOR ASSESSING RADIATION EXPOSURE” (NUtech Ventures, priority 2020, published 2023):

Experiments:
[1] = tested on: mouse whole blood metabolome; test: Combined NMR and LC-MS metabolomics of mouse whole blood, metabolic time trajectories (cohort 3); type: in vivo; settings: for NMR metabolic time trajectory of whole blood after radiation: PLS Q2 against D−5 baseline
Method: (§1) Cohort three comprised whole blood samples from mice exposed to a single dose of 9.6 Gy ^60Co-γ-radiation at a rate of 0.6 Gy/minute in the presence or absence of drug intervention (50 mg/kg or 200 mg/kg amifostine). A total of 300 blood samples were collected from 60 mice divided into five groups (12 mice per group). The five groups correspond to: (1) amifostine dosage of 50 mg/kg without radiation exposure, (2) amifostine dosage of 200 mg/kg without radiation exposure, (3) amifostine dosage of 50 mg/kg with radiation exposure, (4) amifostine dosage of 200 mg/kg with radiation exposure, and (5) a radiation exposure without an amifostine treatment. Blood samples were collected at five time-points: at day −5 (D−5), at time of amifostine dosage, day −1 (D−1), day 1 (D1), day 5 (D5) and day 9 (D9). Amifostine was delivered through a subcutaneous injection.
Mouse (n=236) and NHP (n=70) serum samples, and mouse blood samples (n=300) were simultaneously prepared for LC-MS and NMR analysis as shown in FIG. 1C. 2.0% by volume of NaN3 was added to each serum or blood sample to avoid bacterial growth. The protein component was precipitated by adding 100 μL (2×) of methanol to 50 μL of serum or blood. Deoxygenated methanol was used for the blood preparation to avoid unnecessary oxidation of the red blood cells. Methanol was purged of oxygen by bubbling in nitrogen gas for 30 minutes.
The 1:2 mixtures were then vortexed for 10 seconds. Serum samples were incubated at room temperature for 5 minutes. Blood samples were sonicated in a water bath for 10 minutes at 4° C., followed by incubation at −20° C. for 20 minutes. The samples were then centrifuged at 15,000×g for 20 minutes at 4° C. to pellet the proteins. The supernatant was collected, transferred to an Eppendorf tube, and centrifuged again at 15,000×g for 5 minutes at 4° C. The supernatant was then divided 20% and 80% for LC-MS and NMR samples, respectively. Samples were snap-frozen in liquid nitrogen. Methanol was evaporated by speed vacuum centrifugation (SpeedVac R Plus, Savant) and water was removed by lyophilization using FreeZone™ (Labconco, Kansas City, MO).
Dried serum or blood samples were reconstituted using 50 μL of 50 mM phosphate buffer in 100% D20 at pH 7.2 (uncorrected) with 50 μM TMSP as an NMR chemical shift reference and internal standard. The samples were centrifuged at 15,000×g for 20 minutes at 4° C. to remove any particulates, and the supernatant was transferred to 1.7 mm NMR tube for data acquisition. All NMR experiments were collected at 298K with a Bruker AVANCE III HD 700 MHz spectrometer equipped with a 5 mm quadruple resonance QCI-P cryoprobe (^1H, ^13C, ^15N and ^31P) with z-axis gradients. A SampleJet automated sample changer with Bruker ICON-NMR software was used to collect all data. […]

[2] = tested on: mice exposed to 9.6 Gy 60Co-γ-radiation; test: Thirty-day survival of mice given amifostine before 9.6 Gy 60Co-γ-radiation (cohort 3); type: in vivo, mouse
Method: as §1
Lastly, to evaluate the radioprotective impact of amifostine treatment, cohort three also contained mice that received a subcutaneous injection of either 50 mg/kg or 200 mg/kg of amifostine 30 minutes (+10 minutes) before exposure to radiation. A total of 300 samples were collected from 60 mice divided into five groups (n=12): (1) 50 mg/kg amifostine treatment without radiation exposure (Am50), (2) 200 mg/kg amifostine treatment without radiation exposure (Am200), (3) only 9.6 Gy radiation exposure (RAD), (4) 9.6 Gy radiation exposure with a 50 mg/kg amifostine treatment (RAD+Am50), and (5) 9.6 Gy radiation exposure with a 200 mg/kg amifostine treatment (RAD+Am200). Serum samples were collected from each group at five different time points. Serum collected at five days and one day prior to radiation exposure were used as controls, and serum samples for metabolomics analysis were collected at 1, 5 and 9 days post-irradiation (Table 1).
Furthermore, an incremental decrease in survival began at day 11.

NCCCNCCSP(=O)(O)O [amifostine, 2-(3-aminpropyl) aminoethylphosphorothioate]
NMR metabolic time trajectory of whole blood after radiation ([1]; amifostine 50 mg/kg, 9.6 Gy): could not be discriminated from untreated controls | NMR metabolic time trajectory of whole blood after radiation ([1]; amifostine 200 mg/kg, 9.6 Gy, p=1.60×10^−7): reversed progression back towards the baseline norm (D−5) by D9 | recovery of dysregulated metabolic pathways ([1]; amifostine 200 mg/kg, between D5 and D9 after radiation exposure): recovery of pathways including lipid metabolism, glycolysis, and TCA activity as well as energy and amino acid metabolism | LC-MS metabolic time trajectory of whole blood after radiation ([1]; amifostine treatment, 9.6 Gy, p=2.10×10^−2): divergence of trajectories from D5 to D9 | survival at 30 days post-irradiation ([2]; amifostine 50 mg/kg subcutaneous, 30 minutes before 9.6 Gy, untreated irradiated animals 100% died): 40% | day at which incremental decrease in survival began ([2]; amifostine 50 mg/kg, 9.6 Gy): 11 days | animal survival 30 days post-irradiation ([2]; amifostine 200 mg/kg subcutaneous, 30 minutes prior to 9.6 Gy, untreated irradiated animals 100% died): 100%
